Data from patent publication US10183033B2, “Triptolide prodrugs” (priority 2009, dated 2019).
Counter-ions that a name gives are not always drawn. Like-named read-outs stand apart in the source and are kept apart here.

Columns and labels:
[1] = test system: alkaline phosphatase (from bovine intestinal mucosa, Type VII-S); experiment: In vitro enzymatic conversion (hydrolysis) by alkaline phosphatase; format: in vitro ADME; conditions: alkaline phosphatase in glycine buffer (pH 9.8), FIG. 3
Protocol: (§1) Compound 1 is converted into the active triptolide form by action of the enzyme alkaline phosphatase. An in vitro experiment to study the bioconversion of the triptolide prodrug compound of the invention was performed. In vitro bioconversion was simulated using alkaline phosphatase (from bovine intestinal mucosa, Type VII-S available from Sigma-Aldrich (St. Louis, Mo.) in glycine buffer (pH 9.8).
(§2) The first order degradation constant was calculated by fitting the remaining concentration versus the incubation time. The degradation half-life (t½) of compound 1 was determined to be 2 minutes.

alkaline phosphatase = experiment: as above; format: in vitro ADME, bovine; conditions: bovine
Protocol: as §1, §2

MiaPaca-2 cells = experiment: Comparative in vivo study, orthotopic MiaPaca-2 pancreatic tumor in nude mice; conditions: i.p. daily 60 days
Protocol: Thirty nude mice of the strain athymic nu/nu were obtained from National Cancer Institute (NCI) (Rockville, Md.) and kept in a RAR facility. The mice were anaesthetized in accordance with the recommendations of the RAR facility using ketamine 75-200 mg/kg and xylazine 4-8 mg/kg. A small incision 3 mm was made on the left side of the abdominal wall and the spleen was pulled out with forceps far enough to expose and access the pancreas. MiaPaca-2 cell medium was prepared and kept on ice until delivery into the mice. Into each of the mice, 1 million MiaPaca-2 cells suspended in MATRIGEL™ (available from Becton-Dickinson Corporation, Franklin Lakes, N.J.) was injected into the tail of the pancreas (identified by its anatomical attachment with the spleen) using a Hamilton syringe. Following delivery of the cells, the syringe was held steady for an additional 5-10 seconds to permit the MATRIGEL™ to set. The spleen was replaced back into the abdominal cavity, and the abdominal wall was closed by vicryl suture in a continuous manner. The skin was apposed and closed using wound clips. The mice were then transferred to a heating pad until fully recovered before being returned to the cage. Post-operative pain medication (buprenonorphine 0.1 mg/kg) was administered intraperitoneally immediately after full recovery from anaesthesia to prevent respiratory depression and then administered every 12 hours for 2 days. The wound clips were removed from the mice after 7 days of surgery.
The mice were then randomized into 3 groups, each group having 10 mice. The groups were as follows: control group, triptolide group and the triptolide prodrug (compound 1) group. The control group consisted of mice that were injected intraperitoneally with vehicle DMSO.
The triptolide group subjects were injected with 0.2 mg/kg of triptolide dissolved in DMSO and diluted with phosphate buffered saline to a volume of 100 the intraperitoneal injections being daily over a period of 60 days. The compound 1 subjects were intraperitoneally injected daily for 60 days with 0.28 mg/kg of the compound dissolved in phosphate buffered saline diluted to a volume of 100 μl.
The mice were euthanized under anaesthesia at the conclusion of the 60 day treatments. Samples were collected (blood, lung, spleen, liver, kidneys and tumor tissue), and tumor volume and weight were measured and compared among the different groups. Observations were made on the loco-regional growth and cancer growth.

MIA PaCa-2 cells = experiment: Orthotopic mouse model of pancreatic cancer (60 day dosing study); format: in vivo, mice; conditions: i.p. 60 d, compound 1 0.1-0.9 mg/kg; for survival versus vehicle: triptolide 0.2 mg/kg QD, observed another 28 d, FIG. 13, 14
Protocol: MIA PaCa-2 cells (1×10^6) were suspended in matrigel and injected into the tail of the pancreas of 4-6 week old female nude mice. Ten days post-cell implantation, mice were injected intraperitoneally with indicated concentrations of compound 1 (0.1, 0.15, 0.3, 0.6 or 0.9 mg/kg) or 0.2 mg/kg Triptolide QD for 60 d. Control mice were injected with saline BID. […] Tumor samples, if any, were harvested from these mice, and tumor weight and volume measured. If tumor burden exceeded University of Minnesota animal care guidelines, mice were sacrificed at earlier time points and their tumors harvested.

[2] = test system: S2013, a highly metastatic pancreatic cancer cell line; experiment: Orthotopic mouse model of pancreatic cancer (21 day dosing study); format: in vivo, mice; conditions: 0.42 mg/kg i.p. for 21 d; FIG. 16
Protocol: 1×10^6 Cells of S2013, a highly metastatic pancreatic cancer cell line, were suspended in matrigel and injected into the tail of the pancreas of 4-6 week old female nude mice. Seven days post-cell implantation, mice were injected intraperitoneally with 0.42 mg/kg of compound 1 for 21 d. Treatment was stopped after 21 d, and mice sacrificed. Tumor samples, if any, were harvested from these mice, and tumor weight and volume measured. If tumor burden exceeded University of Minnesota animal care guidelines, mice were sacrificed and their tumors harvested at an earlier time point. Control mice were injected with saline QD.

SkChA-1 cells = experiment: Subcutaneous mouse model of cholangiocarcinoma; format: in vivo, mice; conditions: 0.3 mg/kg i.p. BID for 25 days; FIG. 17
Protocol: SkChA-1 cells (5×10^5) were suspended in matrigel and injected subcutaneously into the left flank of 4-6 week old female nude mice. Seven days post-cell implantation, mice were injected intraperitoneally with 0.3 mg/kg of compound 1 BID for 25 days. Treatment was stopped at this point, and mice sacrificed. Tumor samples, if any, were harvested from these mice, and tumor weight and volume measured. If tumor burden exceeded University of Minnesota animal care guidelines, mice were sacrificed and their tumors harvested at an earlier time point. Control mice were injected with saline BID.

[3] = Tris buffer (pH 7.4) and Borate buffer (pH 7.4), room temperature
[4] = test system: Pancreatic cancer cells (MiaPaca-2, Panc-1, S2VP10); experiment: Comparative in vitro cell viability (Dojindo Cell Counting Kit-8); conditions: 50 to 200 nmol/L, 24 and 48 hours; prodrug with alkaline phosphatase; FIG. 4-6
Neuroblastoma N2 cells = experiment: Orthotopic mouse model of neuroblastoma; format: in vivo; conditions: 0.4 mg/kg i.p. for 21 days, A/J immunocompetent mice; FIG. 18
Protocol: Neuroblastoma N2 cells (1×10^6) were suspended in matrigel and injected into the left retroperitoneal space of 4-6 week old A/J immunocompetent mice. Three days post-cell implantation, mice were injected with 0.4 mg/kg of triptolide intraperitoneally for 21 days. Treatment was stopped at this point, and mice sacrificed. Tumor samples, if any, were harvested from these mice, and tumor weight and volume measured. If tumor burden exceeded University of Minnesota animal care guidelines, mice were sacrificed and their tumors harvested at an earlier time point. Control mice were injected with DMSO for 21 days.

Neuroblastoma N2a = experiment: Neuroblastoma cell killing; format: cell-based
Protocol: (§3) Neuroblastoma N2a and SKNSH cells were treated with triptolide, resulting in dose- and time-dependent cell killing in N2a, with more than 50% of cells killed with 62.5 nM triptolide at 24 hours and nearly 85% of cells killed with 250 nM triptolide at 48 hours (FIG. 19). To confirm the hypothesis that triptolide results in neuroblastoma cell death via an apoptotic pathway, caspase-3 activity was measured as a marker of apoptosis. In both cell lines, increases in caspase activity with higher doses of triptolide and longer duration of therapy.

caspase-3 = experiment: Caspase-3 activity in neuroblastoma cells; format: cell-based; conditions: N2a and SKNSH cells; FIG. 20
Protocol: as §3

[5] = triptolide 0.2 mg/kg, compound 1 0.28 mg/kg
[6] = pH 9.8, Alkaline Phosphatase, 37° C., read-out: Enzymatic Hydrolysis (t½), Alkaline Phosphatase, 37° C.

## CC(C)[C@]12O[C@H]1[C@@H]1O[C@]13[C@]1(O[C@H]1C[C@H]1C4=C(CC[C@@]13C)C(=O)OC4)[C@@H]2OCOP(=O)(O)O [Compound 1, 14-O-Phosphonooxymethyltriptolide Disodium Salt]
[1]
  time period in which the majority of conversion to triptolide took place: ≤ 10 min
Alkaline phosphatase; alkaline phosphatase in glycine buffer (pH 9.8), first order fit, read-out: degradation half-life (t½)
  half-life: 2 min
MiaPaca-2 cells; 0.28 mg/kg compound 1
  pancreatic tumor growth inhibition vs untreated control: considerable pancreatic tumor growth inhibition
MiaPaca-2 cells; [5]
  impact on body weight: no apparent significant impact
  signs of toxicity: no apparent signs of toxicity
  tumor volume vs untreated control: significantly reduced
MIA PaCa-2 cells; FIG. 15
  tumor burden (tumor volume or tumor weight) versus control: decreased tumor burden
MIA PaCa-2 cells
  survival versus vehicle: enhanced survival
[2]
  tumor burden (tumor volume or tumor weight) versus control: decreased tumor burden
SkChA-1 cells
  tumor burden (tumor volume or tumor weight) versus control: decreased tumor burden
[3]
  degradation after 1 month: no degradation
[4]
  pancreatic cell viability: significantly reduced

## CC(O[C@@H]1[C@@]2(C(C)C)O[C@H]2[C@@H]2O[C@]23[C@]12O[C@H]2C[C@H]1C2=C(CC[C@@]13C)C(=O)OC2)OP(=O)(O)O (stereo partly drawn) [Example 3, 14-O-Phosphonooxyethyltriptolide Disodium Salt]
Alkaline phosphatase; [6]
  half-life: 9 min

## CCC(O[C@@H]1[C@@]2(C(C)C)O[C@H]2[C@@H]2O[C@]23[C@]12O[C@H]2C[C@H]1C2=C(CC[C@@]13C)C(=O)OC2)OP(=O)(O)O (stereo partly drawn) [Example 4, 14-O-Phosphonooxypropyltriptolide Disodium Salt]
Alkaline phosphatase; [6]
  half-life: 17 min

## CC(C)[C@]12O[C@H]1[C@@H]1O[C@]13[C@]1(O[C@H]1C[C@H]1C4=C(CC[C@@]13C)C(=O)OC4)[C@@H]2O [triptolide]
MiaPaca-2 cells; [5]
  tumor volume vs untreated control: significantly reduced
MIA PaCa-2 cells
  survival versus vehicle: enhanced survival
Neuroblastoma N2 cells
  tumor burden (tumor volume and tumor mass) versus control: decreased tumor burden
Neuroblastoma N2a; 62.5 nM, 24 hours
  cells killed: more than 50%
Neuroblastoma N2a; 250 nM, 48 hours
  cells killed: ~85%
caspase-3
  caspase-3 activity levels: dose- and time-dependent increases
[4]
  pancreatic cell viability: significantly reduced
